# Measured values: PMC7179312 (Antimicrobial Agents and Chemotherapy, 2020)
# Experiments:
# [1] = test system: P. aeruginosa PAM1154 carrying pUCP24 vector (PAM4175); experiment: MIC, CLSI broth microdilution; type: cell-based; conditions: Pseudomonas aeruginosa, drug alone
# From the text: The effects of KPC mutations on resistance to various antibiotics were investigated. For these studies, pUCP24 plasmids carrying wild-type and mutant blaKPC-2 genes as well as the pUCP24 vector were transformed into PAM1154, an efflux-deficient strain of Pseudomonas aeruginosa. In this host, the effect of β-lactamases on β-lactam MIC is amplified due to the slowed uptake of β-lactams across the low-permeability outer membrane without interference by efflux of either β-lactams or BLIs. Consequently, this host allows detection of β-lactamase activity (as an MIC increase) of low-catalytic-efficiency enzymes that rely heavily on the low permeability of the outer membrane. Using the strain that lacks efflux pumps ensures no interference from efflux in interpreting results. We next evaluated the steady-state protein expression levels in bacterial cells. […] The observed discrepancy with our results could be attributed to the difference in either the expression vector or host bacteria.
# (§1) For microbiological studies, wild-type blaKPC-2 and its mutant variants were cloned into the shuttle vector pUCP24. Resulting plasmids were transformed in the efflux-deficient strain of P. aeruginosa PAM1154 using selection on 15 μg/ml of gentamicin. Using a strain of P. aeruginosa as opposed to E. coli as a host for various cloned genes was based on the following consideration. As well documented elsewhere ([41]), P. aeruginosa has a low-permeability outer membrane; consequently, the effect of β-lactamases on MIC is amplified in P. aeruginosa compared to that in E. coli due to the slowed uptake of β-lactams. Thus, this host is appropriate to detect β-lactamase activity (as an MIC increase) of low-catalytic-efficiency enzymes that rely heavily on low permeability of the outer membrane. […] MICs were determined using the Clinical and Laboratory Standards Institute (CLSI) broth microdilution method as described in CLSI document M07-A11 ([42]). Potentiation of antibiotic activity by various BLIs in bacterial strains carrying wild-type (WT) and mutant KPC-2 genes was performed using standard checkerboard methodology ([43]). BLI potency was defined as PV50 (PV, potentiation value). PV50 is the minimal concentration of a BLI that is required to reduce the antibiotic MIC to the middle of the MIC range (E50) where the highest MIC is the MIC for a KPC-producing strain with no inhibitor added and the lowest MIC is the MIC for the vector-only strain, corresponding to the complete inhibition of KPC. E50 is calculated as the square root of the product of the antibiotic MICs for the KPC-producing and the vector-only strains.
# [2] = test system: P. aeruginosa PAM1154 carrying pUCP24-KPC-2 (PAM4135); experiment: MIC, CLSI broth microdilution; type: cell-based; conditions: Pseudomonas aeruginosa; PAM4135, pUCP24-KPC-2; drug alone
# From the text: (§2) The effects of KPC mutations on resistance to various antibiotics were investigated. For these studies, pUCP24 plasmids carrying wild-type and mutant blaKPC-2 genes as well as the pUCP24 vector were transformed into PAM1154, an efflux-deficient strain of Pseudomonas aeruginosa. In this host, the effect of β-lactamases on β-lactam MIC is amplified due to the slowed uptake of β-lactams across the low-permeability outer membrane without interference by efflux of either β-lactams or BLIs. Consequently, this host allows detection of β-lactamase activity (as an MIC increase) of low-catalytic-efficiency enzymes that rely heavily on the low permeability of the outer membrane. Using the strain that lacks efflux pumps ensures no interference from efflux in interpreting results. We next evaluated the steady-state protein expression levels in bacterial cells.
# as §1, with “Potentiation of antibiotic activity by various BLIs in bacterial strains carrying wild-type (WT) and mutant KPC-2 genes was performed using standard checkerboard methodology ([43]).” left out
# [3] = test system: P. aeruginosa PAM1154 carrying pUCP24-KPC-2::D179Y (PAM4639); experiment: MIC, CLSI broth microdilution; type: cell-based, Pseudomonas aeruginosa; conditions: for MIC: Pseudomonas aeruginosa, PAM4639, pUCP24-KPC-2::D179Y, drug alone
# From the text: as §2
# as §1, with “Potentiation of antibiotic activity by various BLIs in bacterial strains carrying wild-type (WT) and mutant KPC-2 genes was performed using standard checkerboard methodology ([43]).” left out
# [4] = test system: P. aeruginosa PAM1154 carrying pUCP24-KPC-2::L169P (PAM4751); experiment: MIC, CLSI broth microdilution; type: cell-based, Pseudomonas aeruginosa; conditions: for MIC: Pseudomonas aeruginosa, PAM4751, pUCP24-KPC-2::L169P, drug alone
# From the text: as §2
# as §1, with “Potentiation of antibiotic activity by various BLIs in bacterial strains carrying wild-type (WT) and mutant KPC-2 genes was performed using standard checkerboard methodology ([43]).” left out
# [5] = test system: P. aeruginosa PAM1154 carrying pUCP24 vector (PAM4175); experiment: Checkerboard potentiation of antibiotic activity by BLIs; type: cell-based, Pseudomonas aeruginosa
# From the text: BLI potency was defined as PV50 (PV, potentiation value) of antibiotic potentiation. PV50 is the concentration of a BLI that is required to reduce the antibiotic MIC to the middle of the MIC range where the highest MIC is the MIC for a KPC-producing strain with no inhibitor added and the lowest MIC is the MIC for the vector-alone strain, which corresponds to complete inhibition of KPC. As a given MIC is directly related to the β-lactamase activity, PV50 might be considered the concentration of a BLI that is required to achieve half-effect of inhibition of β-lactamase activity (in whole cells) to hydrolyze an antibiotic of interest. […] However, the accurate determination of PV50 requires the MIC range to be relatively wide.
# as §1, with “Potentiation of antibiotic activity by various BLIs in bacterial strains carrying wild-type (WT) and mutant KPC-2 genes was performed using standard checkerboard methodology ([43]).” left out
# […]
# […]
# KPC-2 = molecular target: T1, KPC-2 (Klebsiella pneumoniae, UniProt Q9F663); experiment: Kinetics of nitrocefin and ceftazidime hydrolysis by purified enzyme; type: biochemical; conditions: substrate hydrolysis by purified KPC-2
# T1 construct: 6xHis (C); made in house; host or cells: E. coli BL21(DE3) pLys, pET28a
# Experimental: (§3) Enzymes were mixed with various concentrations of nitrocefin in 50 mM sodium phosphate (pH 7.0)–0.1 mg/ml of bovine serum albumin (buffer A), and substrate cleavage was monitored at 490 nm every 10 s for 10 min at 37°C on a SpectraMax plate reader (Molecular Devices, San Jose, CA). Initial rates of nitrocefin cleavage were calculated and used to obtain Km and kcat values with Prism software (GraphPad, San Diego, CA).
# (§4) Substrate cleavage was monitored at 260 nm every 30 s at room temperature using a SpectraMax plate reader. The reaction was monitored until OD260 values reached a plateau. Resulting OD260 versus time reaction profiles were fitted to the following equation using Prism software: At = A∞ + (A0 − A∞) × e^−k×t, where At is absorbance at time t, A0 is initial absorbance, and A∞ is final absorbance. In this equation, k = kcat/Km × [E], which allows calculatation of kcat/Km knowing the enzyme concentration ([44]).
# KPC-2 D179Y = molecular target: T2, KPC-2 D179Y (Klebsiella pneumoniae, UniProt Q9F663, D178Y); experiment: as above; type: biochemical
# T2 construct: 6xHis (C); made in house; host or cells: E. coli BL21(DE3) pLys, pET28a
# Experimental: as §3, §4
# KPC-2 L169P = molecular target: T3, KPC-2 L169P (Klebsiella pneumoniae, UniProt Q9F663, L168P); experiment: as above; type: biochemical
# T3 construct: 6xHis (C); made in house; host or cells: E. coli (pET28a construct; BL21(DE3) pLys is named only for wild type and D179Y)
# Experimental: as §3, §4
# [6] = test system: CC(C)(O/N=C(\C(=O)N[C@@H]1C(=O)N2C(C(=O)[O-])=C(C[n+]3ccccc3)CS[C@H]12)c1csc(N)n1)C(=O)O; experiment: purified protein, by the assay type; type: biochemical; conditions: other: substrate hydrolysis by purified KPC-2; pH 7.0; 37.0 °C
# [7] = substrate hydrolysis by purified KPC-2 D179Y
# [8] = substrate hydrolysis by purified KPC-2 L169P
molecule,measurement,setting,value
"C[C@H]1[C@H](NC(=O)/C(=N\OC(C)(C)C(=O)O)c2csc(N)n2)C(=O)N1S(=O)(=O)O [Aztreonam, aztreonam]",MIC,[1],0.125 µg/mL
"CC(C)(O/N=C(\C(=O)N[C@@H]1C(=O)N2C(C(=O)[O-])=C(C[n+]3ccccc3)CS[C@H]12)c1csc(N)n1)C(=O)O [Ceftazidime, ceftazidime]",MIC,[1],0.25 µg/mL
same,MIC,[2],32 µg/mL
same,MIC,[3],512 µg/mL
same,MIC,[4],256 µg/mL
same,"Antibiotic MIC, No BLI",[5]; no BLI,0.25 µg/mL
"C[C@@H](O)[C@H]1C(=O)N2C(C(=O)O)=C(S[C@@H]3CN[C@H](C(=O)N(C)C)C3)[C@H](C)[C@H]12 [Meropenem, meropenem]",MIC,[1],0.125 µg/mL
same,MIC,[2],64 µg/mL
same,reduction of MIC vs wild-type KPC-2 strain,[3]; D179Y strain,64 fold
same,MIC,[3],1 µg/mL
same,increase of MIC vs vector-only strain,[3]; {},8-16 fold
same,reduction of MIC vs wild-type KPC-2 strain,[4]; L169P strain,64 fold
same,MIC,[4],1 µg/mL
same,increase of MIC vs vector-only strain,[4]; {},8-16 fold
"O=C(Cc1cccs1)N[C@@H]1C(=O)N2C(C(=O)O)=C(/C=C/c3ccc([N+](=O)[O-])cc3[N+](=O)[O-])CS[C@H]12 [Nitrocefin, nitrocefin]",Km,KPC-2,36 ± 5 µM
same,kcat,KPC-2,132 ± 13 s⁻¹
same,reduction of kcat vs wild-type KPC-2,KPC-2 D179Y; KPC-2 D179Y,"approximately 6,000 fold"
same,Km,KPC-2 D179Y; [7],26 ± 12 µM
same,kcat,KPC-2 D179Y; [7],0.023 ± 0.002 s⁻¹
same,reduction of kcat vs wild-type KPC-2,KPC-2 L169P; KPC-2 L169P,~300 fold
same,Km,KPC-2 L169P; [8],40 ± 10 µM
same,kcat,KPC-2 L169P; [8],0.47 ± 0.04 s⁻¹
"CCN1CCN(C(=O)N[C@@H](C(=O)N[C@@H]2C(=O)N3[C@@H]2SC(C)(C)[C@@H]3C(=O)O)c2ccccc2)C(=O)C1=O [Piperacillin, piperacillin]",MIC,[1],0.06 µg/mL
same,Beta-lactam MIC in the presence of BLI,[5]; avibactam 0 µg/ml,0.125 µg/mL
same,Beta-lactam MIC in the presence of BLI,[5]; avibactam 0.008 µg/ml,0.125 µg/mL
same,Beta-lactam MIC in the presence of BLI,[5]; avibactam 0.031 µg/ml,0.125 µg/mL
same,Beta-lactam MIC in the presence of BLI,[5]; avibactam 0.06 µg/ml,0.125 µg/mL
same,Beta-lactam MIC in the presence of BLI,[5]; avibactam 0.5 µg/ml,0.125 µg/mL
same,Beta-lactam MIC in the presence of BLI,[5]; avibactam 64 µg/ml,0.03 µg/mL
same,Beta-lactam MIC in the presence of BLI,[5]; avibactam […],0.125 µg/mL
same,Beta-lactam MIC in the presence of BLI,[5]; vaborbactam 0 µg/ml,0.125 µg/mL
same,Beta-lactam MIC in the presence of BLI,[5]; vaborbactam 0.008 µg/ml,0.125 µg/mL
same,Beta-lactam MIC in the presence of BLI,[5]; vaborbactam 0.031 µg/ml,0.125 µg/mL
same,Beta-lactam MIC in the presence of BLI,[5]; vaborbactam 0.06 µg/ml,0.125 µg/mL
same,Beta-lactam MIC in the presence of BLI,[5]; vaborbactam 0.5 µg/ml,0.125 µg/mL
same,Beta-lactam MIC in the presence of BLI,[5]; vaborbactam 1 µg/ml,0.125 µg/mL
same,Beta-lactam MIC in the presence of BLI,[5]; vaborbactam 2 µg/ml,0.125 µg/mL
same,Beta-lactam MIC in the presence of BLI,[5]; vaborbactam 4 µg/ml,0.125 µg/mL
same,Beta-lactam MIC in the presence of BLI,[5]; vaborbactam 8 μg/ml,0.125 µg/mL
same,Beta-lactam MIC in the presence of BLI,[5]; vaborbactam 16 µg/ml,0.125 µg/mL
same,Beta-lactam MIC in the presence of BLI,[5]; vaborbactam […],0.125 µg/mL
KPC-2 (Klebsiella pneumoniae),kcat,[6],> 2.6 s⁻¹
same,kcat/Km,[6],870 ± 110 M⁻¹ s⁻¹
